Measured values taken from patent US6593357B1, “Pyrazole compositions useful as inhibitors of ERK” (Vertex Pharmaceuticals Incorporated, priority 2000, dated 2003).

target: ERK2 (Homo sapiens, UniProt P28482); assay: ERK2 inhibition, spectrophotometric coupled-enzyme assay; format: biochemical; settings: ERK2 Inhibitory Activity (Ki class), activated ERK2 10 nM, 65 μM ATP, 30° C., pH 7.5
Sequence (P28482 whole entry): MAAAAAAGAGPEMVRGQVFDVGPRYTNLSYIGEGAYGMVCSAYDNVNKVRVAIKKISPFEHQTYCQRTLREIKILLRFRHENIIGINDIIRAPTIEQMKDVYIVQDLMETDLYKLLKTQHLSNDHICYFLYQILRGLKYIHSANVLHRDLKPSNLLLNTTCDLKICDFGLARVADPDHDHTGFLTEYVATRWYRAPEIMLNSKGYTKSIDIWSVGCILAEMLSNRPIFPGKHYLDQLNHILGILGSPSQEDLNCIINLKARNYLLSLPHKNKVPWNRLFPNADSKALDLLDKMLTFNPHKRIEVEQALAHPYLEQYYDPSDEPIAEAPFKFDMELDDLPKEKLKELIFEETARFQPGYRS

SMILES | Ki [nM]
O=C(NC1c2ccccc2CC1O)c1cc(-c2[nH]ncc2-c2cccc(Cl)c2)c[nH]1 (stereo not shown) [II-155] | 1000 to 5000
CCN1CCCC1CNC(=O)c1cc(-c2n[nH]cc2-c2cccc(Cl)c2)c[nH]1 (stereo not shown) [II-286] | > 5000

same assay, conditions: activated ERK2 10 nM, 65 μM ATP, 30° C., pH 7.5; read-out: ERK2 Inhibitory Activity (Ki class)

SMILES | Ki [nM]
O=C(N[C@@H](CO)Cc1ccccc1)c1cc(-c2[nH]ncc2-c2cccc(Br)c2)c[nH]1 [II-91] | < 1000
Cc1ccc(N2CCN(C(=O)c3cc(-c4[nH]ncc4-c4cccc(Br)c4)c[nH]3)CC2)cc1 [II-126] | 1000 to 5000
O=C(Nc1ccc(F)c(F)c1)c1cc(-c2[nH]ncc2-c2cccc(Br)c2)c[nH]1 [II-40] | < 1000
Cc1ccccc1CNC(=O)c1cc(-c2[nH]ncc2-c2cccc(Br)c2)c[nH]1 [II-60] | < 1000
COc1cccc(N2CCN(C(=O)c3cc(-c4[nH]ncc4-c4cccc(Br)c4)c[nH]3)CC2)c1 [II-122] | 1000 to 5000
O=C(NC(CO)c1ccccc1)c1cc(-c2[nH]ncc2-c2cc(I)c(O)c([N+](=O)[O-])c2)c[nH]1 (stereo not shown) [II-42] | < 1000
O=C(NCc1cccnc1)c1cc(-c2[nH]ncc2-c2ccc(F)c(F)c2)c[nH]1 [II-116] | 1000 to 5000
COc1ccc(C[C@H](CO)NC(=O)c2cc(-c3[nH]ncc3-c3cccc(Br)c3)c[nH]2)cc1OC [II-296] | > 5000
O=C(NCc1cccnc1)c1cc(-c2[nH]ncc2-c2cccc(F)c2)c[nH]1 [II-119] | 1000 to 5000
COc1cccc(-c2cn[nH]c2-c2c[nH]c(C(=O)NCc3cccnc3)c2)c1 [II-26] | < 1000
CS(=O)(=O)c1ccc(CNC(=O)c2cc(-c3[nH]ncc3-c3cccc(Br)c3)c[nH]2)cc1 [II-55] | < 1000
Nc1cccc(-c2cn[nH]c2-c2c[nH]c(C(=O)NCc3ccccc3)c2)c1 [II-131] | 1000 to 5000
O=C(NC[C@@H]1CCCC[C@@H]1O)c1cc(-c2[nH]ncc2-c2cccc(Br)c2)c[nH]1 [II-65] | < 1000
COc1cccc(-c2cn[nH]c2-c2c[nH]c(C(=O)NCCN(C)C)c2)c1 [II-25] | > 5000
CN(Cc1ccccc1)C(=O)c1cc(-c2[nH]ncc2-c2cccc(Br)c2)c[nH]1 [II-83] | < 1000
COc1cc(OC)c(CNC(=O)c2cc(-c3[nH]ncc3-c3cccc(Br)c3)c[nH]2)c(OC)c1 [II-118] | 1000 to 5000
CCOC(=O)c1cc(-c2[nH]ncc2-c2cccc([N+](=O)[O-])c2)c[nH]1 [II-6] | < 1000
CC1CCN(C(=O)c2cc(-c3[nH]ncc3-c3ccccc3)c[nH]2)CC1 [II-166] | > 5000
COc1cc2c(cc1OC)C(CO)N(C(=O)c1cc(-c3[nH]ncc3-c3cccc(Br)c3)c[nH]1)CC2 (stereo not shown) [II-105] | < 1000
O=C(NCc1ccccc1)c1cc(-c2[nH]ncc2-c2cccc([N+](=O)[O-])c2)c[nH]1 [II-285] | 1000 to 5000
CCOC(=O)c1cc(-c2[nH]ncc2-c2ccc(N)cc2)c[nH]1 [II-164] | > 5000

SMILES | Ki [nM]
O=C(N[C@@H](CO)Cc1cnc[nH]1)c1cc(-c2[nH]ncc2-c2cccc(Br)c2)c[nH]1 [II-294] | > 5000
Nc1cccc(-c2cn[nH]c2-c2c[nH]c(C(=O)NCc3ccccc3)c2)c1 [II-73] | < 1000
O=C(NC(COc1ccccc1)c1ccc2c(c1)OCCO2)c1cc(-c2[nH]ncc2-c2cccc(Br)c2)c[nH]1 (stereo not shown) [II-290] | 1000 to 5000
CC(C)(C)OC(=O)N1CCCC(CNC(=O)c2cc(-c3[nH]ncc3-c3cccc(Cl)c3F)c[nH]2)C1 (stereo not shown) [II-121] | 1000 to 5000
CCOC(=O)c1cc(-c2[nH]ncc2-c2cccc(Br)c2)c[nH]1 [II-157] | 1000 to 5000
CCOC(=O)c1cc(-c2[nH]ncc2-c2cccc(OC)c2)c[nH]1 [II-10] | > 5000
COC(=O)c1cccc(-c2cn[nH]c2-c2c[nH]c(C(=O)NCc3ccccc3)c2)c1 [II-132] | 1000 to 5000
O=C(NCc1ccccc1)c1cc(-c2[nH]ncc2-c2cccc(F)c2)c[nH]1 [II-63] | < 1000
CC(C)(C)OC(=O)N1CCCC(CNC(=O)c2cc(-c3[nH]ncc3-c3cc(Cl)cc(Cl)c3)c[nH]2)C1 (stereo not shown) [II-125] | 1000 to 5000
CCOC(=O)c1cc(-c2[nH]ncc2-c2ccc([N+](=O)[O-])cc2)c[nH]1 [II-165] | > 5000
CCOC(=O)c1cc(-c2[nH]ncc2-c2ccccc2)c[nH]1 [II-2] | > 5000
O=C(NCc1ccccc1)c1cc(-c2[nH]ncc2-c2cccc([N+](=O)[O-])c2)c[nH]1 [II-79] | < 1000
CCN(C)C(=O)c1cc(-c2[nH]ncc2-c2cccc(F)c2)c[nH]1 [II-291] | > 5000
O=C(NCc1cccnc1)c1cc(-c2[nH]ncc2-c2ccccc2)c[nH]1 [II-18] | < 1000
CN(C)CCNC(=O)c1cc(-c2[nH]ncc2-c2ccccc2)c[nH]1 [II-297] | > 5000
O=C(c1cc(-c2[nH]ncc2-c2ccccc2)c[nH]1)N1CCCC1 [II-4] | < 1000
O=C(NC(CO)(CO)CO)c1cc(-c2[nH]ncc2-c2cccc(Br)c2)c[nH]1 [II-295] | > 5000
COc1cccc(CNC(=O)c2cc(-c3[nH]ncc3-c3cccc(Br)c3)c[nH]2)c1 [II-46] | < 1000
COc1cccc(-c2cn[nH]c2-c2c[nH]c(C(=O)N3CCN(C)CC3)c2)c1 [II-29] | > 5000
COc1cccc(-c2cn[nH]c2-c2c[nH]c(C(=O)N3CCOCC3)c2)c1 [II-135] | 1000 to 5000
O=C(NC(CCO)c1ccccc1)c1cc(-c2[nH]ncc2-c2cccc(Br)c2)c[nH]1 (stereo not shown) [II-86] | < 1000

SMILES | Ki [nM]
O=C(NCCO)c1cc(-c2[nH]ncc2-c2cccc(Br)c2)c[nH]1 [II-130] | 1000 to 5000
O=C(NCC1CCCO1)c1cc(-c2[nH]ncc2-c2ccc(F)c(F)c2)c[nH]1 (stereo not shown) [II-120] | 1000 to 5000
O=C(c1cc(-c2[nH]ncc2-c2cccc(Br)c2)c[nH]1)N1CCN(c2cnccn2)CC1 [II-138] | 1000 to 5000
CCN(C)C(=O)c1cc(-c2[nH]ncc2-c2cccc(OC)c2)c[nH]1 [II-292] | > 5000
O=C(NCc1ccccc1)c1cc(-c2[nH]ncc2-c2cccc(Br)c2)c[nH]1 [II-299] | > 5000
Nc1cc(-c2cn[nH]c2-c2c[nH]c(C(=O)NC(CO)c3ccccc3)c2)cc(I)c1O (stereo not shown) [II-44] | < 1000
O=C(NNc1cccc(C(F)(F)F)c1)c1cc(-c2[nH]ncc2-c2cccc(Br)c2)c[nH]1 [II-56] | < 1000
Cc1ccc(CNC(=O)c2cc(-c3[nH]ncc3-c3cccc(Br)c3)c[nH]2)o1 [II-58] | < 1000
COc1ccc(-c2cn[nH]c2-c2c[nH]c(C(=O)NOCc3ccccc3)c2)cc1 [II-133] | 1000 to 5000
COc1cccc(-c2cn[nH]c2-c2c[nH]c(C(=O)N3CCCC3)c2)c1 [II-24] | < 1000
CCOC(=O)c1cc(-c2[nH]ncc2-c2cccc(Cl)c2)c[nH]1 [II-13] | < 1000
CC(C)NC(=O)c1cc(-c2[nH]ncc2-c2cccc(C(=O)O)c2)c[nH]1 [II-160] | 1000 to 5000
COc1ccc(-c2cn[nH]c2-c2c[nH]c(C(=O)NCc3ccccc3)c2)cc1 [II-117] | 1000 to 5000
O=C(NCc1ccc(-c2cnns2)cc1)c1cc(-c2[nH]ncc2-c2cccc(Br)c2)c[nH]1 [II-110] | < 1000
Nc1ccc(CNC(=O)c2cc(-c3[nH]ncc3-c3cccc(Br)c3)c[nH]2)cc1 [II-109] | < 1000
O=C(NCc1ccco1)c1cc(-c2[nH]ncc2-c2ccccc2)c[nH]1 [II-22] | < 1000
O=C(c1cc(-c2[nH]ncc2-c2cccc(Br)c2)c[nH]1)N1CCN(c2ccc(F)cc2)CC1 [II-128] | 1000 to 5000
O=C(c1cc(-c2[nH]ncc2-c2cccc(Br)c2)c[nH]1)N(Cc1ccccc1)[C@H](CO)c1ccccc1 [II-288] | 1000 to 5000
NNC(=O)c1cc(-c2[nH]ncc2-c2cccc([N+](=O)[O-])c2)c[nH]1 [II-137] | 1000 to 5000
O=C(c1cc(-c2[nH]ncc2-c2cccc(Br)c2)c[nH]1)N1CCC(O)(c2ccc(Br)cc2)CC1 [II-123] | 1000 to 5000
COc1cccc(-c2cn[nH]c2-c2c[nH]c(C(=O)N3CCOCC3)c2)c1 [II-27] | < 1000

SMILES | Ki [nM]
COc1cccc(-c2cn[nH]c2-c2c[nH]c(C(=O)N(C)C)c2)c1 [II-23] | < 1000
COc1ccccc1CNC(=O)c1cc(-c2[nH]ncc2-c2cccc(Br)c2)c[nH]1 [II-69] | < 1000
Cc1cccc(-c2cn[nH]c2-c2c[nH]c(C(=O)NC(CO)c3ccccc3)c2)c1 (stereo not shown) [II-75] | < 1000
O=C(NCc1ccccc1)c1cc(-c2n[nH]cc2-c2ccccc2)c[nH]1 [II-5, 4-(4-phenyl-1H-pyrazole-3-yl)-1H-pyrrole-2-carboxylic acid benzylamide] | < 1000
CC(C)NC(=O)c1cc(-c2[nH]ncc2-c2ccccc2)c[nH]1 [II-20] | < 1000
O=C(NCc1ccccc1)c1cc(-c2[nH]ncc2-c2cc(I)c(O)c([N+](=O)[O-])c2)c[nH]1 [II-52] | < 1000
O=C(c1cc(-c2[nH]ncc2-c2cccc(Cl)c2F)c[nH]1)N1CCOCC1 [II-129] | 1000 to 5000
COc1cccc(-c2cn[nH]c2-c2c[nH]c(C(=O)NCc3ccco3)c2)c1 [II-30] | < 1000
O=C(NCc1cccnc1)c1cc(-c2[nH]ncc2-c2ccc(Cl)c(Cl)c2)c[nH]1 [II-74] | < 1000
Cc1cccc(-c2cn[nH]c2-c2c[nH]c(C(=O)NCc3ccccc3)c2)c1 [II-90] | < 1000
O=C(NC(CO)c1ccccc1)c1cc(-c2[nH]ncc2-c2cccc(C(F)(F)F)c2)c[nH]1 (stereo not shown) [II-49] | < 1000
COc1ccc(OC)c(CNC(=O)c2cc(-c3[nH]ncc3-c3cccc(Br)c3)c[nH]2)c1 [II-124] | 1000 to 5000
CC(C)ONC(=O)c1cc(-c2[nH]ncc2-c2cccc(Br)c2)c[nH]1 [II-161] | > 5000
CCOC(=O)c1cc(-c2[nH]ncc2-c2ccc(OC)cc2)c[nH]1 [II-8] | > 5000
CCOC(=O)c1cc(-c2[nH]ncc2-c2ccc(F)cc2)c[nH]1 [II-11] | > 5000
COc1cc(CNC(=O)c2cc(-c3[nH]ncc3-c3cccc(Br)c3)c[nH]2)cc(OC)c1 [II-68] | < 1000
O=C(N[C@@H](CO)Cc1ccc(O)cc1)c1cc(-c2[nH]ncc2-c2cccc(Br)c2)c[nH]1 [II-293] | > 5000
O=C(NC(CCO)c1ccccc1)c1cc(-c2[nH]ncc2-c2cccc(Br)c2)c[nH]1 (stereo not shown) [II-59] | < 1000
CCOC(=O)c1cc(-c2[nH]ncc2-c2cccc(F)c2)c[nH]1 [II-162] | > 5000
O=C(NCC1CCCO1)c1cc(-c2[nH]ncc2-c2cc(Cl)cc(Cl)c2)c[nH]1 (stereo not shown) [II-78] | < 1000
